Laboratory results reported in patent US20130172248A1, “3-[4-(PHENYLAMINOOXALYLAMINO)PHENYL]HEX-4-YNOIC ACIDS, PROCESS FOR PREPARATION THEREOF AND USE THEREOF AS A MEDICAMENT” (priority 2012, published 2013).

Legend:
GPCR GPR40 (human) = target: T1, GPCR GPR40 (human) (Homo sapiens, UniProt O14842); assay: In vitro FLIPR assay with recombinant HEK293 cells which express the GPCR GPR40 (intracellular Ca2+); format: cell-based; conditions: recombinant HEK293 cells expressing human GPR40; 100% = 10 μM linoleic acid reference agonist; read-out: hGPR40 EC50
T1 construct: expressed in transfected cells; host or cells: HEK293
Protocol: In Vitro FLIPR Assay with Recombinant Cells which Express the GPCR GPR40
Function-testing assays were performed by means of the FLIPR technique (“Fluorescence Imaging Plate Reader”, Molecular Devices Corp.). For this purpose, agonist-induced changes were determined in the intracellular concentration of Ca^2+ in recombinant HEK293 cells which expressed the GPCR GPR40 (human).
For the studies, cells were sown into 96-well microtiter plates (60 000 cells/well) and left to grow overnight. The medium was removed and the cells were incubated in buffer which contained the fluorescent dye Fluo-4. After this loading with dye, the cells were washed, test substance was added and changes were measured in the intracellular Ca^2+ concentration in the FLIPR instrument. Results were presented as the percentage change relative to the control (0%: no test substance added; 100%: 10 μM linoleic acid reference agonist added) and used for calculation of dose/efficacy curves, and the EC50 values were thus determined. The mean effective concentration (EC50) is the dose at which a half-maximum effect is observed.

human S1P1 receptor = assay: Determination of S1P1 receptor activation (intracellular calcium release, FLIPR, CHO cells); format: cell-based; conditions: compound at 10 μM; in percent of activation by 100 nM S1P
Protocol: Determination of S1P1 Receptor Activation
The activation of the S1P1 receptor by the chemical compounds described in the present invention disclosure was determined via the S1P1 receptor-mediated release of intracellular calcium.
The CHO (chinese hamster ovarian) cells used here was stably overexpressed with the human S1P1 receptor (Flp-In System, Invitrogen). In order to amplify the signal transduction of the receptor in the direction of a cellular calcium response, a receptor modified at the C terminus was used, which contained the sequence of a modified G protein (Gαi4qi4) (WO 02/04665). The changes in intracellular calcium were determined by means of the calcium-sensitive fluorescent dye Fluo-4 (Invitrogen) in an appropriate plate reader (FLIPR, […]).
To prepare the measurement, the cells were sown in 96-well plates (Becton Dickinson, Biocoat cellware, poly-D-lysine coated, #354640) with 40 000 cells per cavity between 18 and 24 hours before the calcium measurement. For the intervening period, the cells were cultivated in an incubator under 95% air humidity with 5% CO2 gas in a medium based on F-12 Glutamax (Gibco #31765), which was additionally supplemented with 1% (vol/vol) penicillin/streptomycin (PAN, #P06-07100), 10% (vol/vol) fetal calf serum (Hyclone charcoal/dextran treated FBS #SH30068) and Hygromycin B (final concentration 300 mg/l; Invitrogen, #10687-010).
For calcium measurement, the cells were laden beforehand with the acetoxymethyl ester derivative of the Fluo-4 dye (Fluo-4 AM, Invitrogen, #F14202) for 60 min. During the loading, which took place in the incubator under the conditions specified above, the cells were incubated with an HBSS buffer (Hanks' Balanced Salt Solution; Invitrogen #14065049) which had been supplemented with Fluo-4 AM (acetoxymethyl ester of Fluo-4; 2 μM; all figures are based on final concentrations), Pluronic® F-127 (0.05% vol/vol; Invitrogen, #P-3000 MP), HEPES (20 mM; Gibco #15630), probenecid (2.5 mM; Sigma #P-8761) and bovine serum albumin (0.05%; Sigma #A-6003). This buffer was finally adjusted to a pH of 7.5 with sodium hydroxide.
During the loading with Fluo-4, the acetoxymethyl ester is cleaved by intracellular esterases, and so there is intracellular accumulation of the dye. The loading of the cells was ended by washing three times (Tecan, Power Washer) with a wash buffer.
The wash buffer was also used for the later fluorescence-based calcium measurement. In this case, the laden and washed cells were stimulated with the compounds described (dissolved in DMSO; maximum final DMSO concentration 0.3%) in different concentrations. […]
All measurements were conducted as triplicates, and the individual values thereof were averaged for further calculation. The percentage activation of the S1P1 receptor, which was caused in some cases by the compounds described, was calculated using the S1P-related calcium response (positive control). Before this calculation, a background correction took place, by subtracting the value of the base control (DMSO control) from all other fluorescence values detected.
Using the specific cellular fluorescence response at different concentrations of the compounds used, concentrations were calculated at which the cell response was at half maximum (EC50 value). […] Here too, the percentage activation of the receptor was calculated using the positive control (S1P, 100 nM) and base control (DMSO control).

T1 sequence (O14842 whole entry): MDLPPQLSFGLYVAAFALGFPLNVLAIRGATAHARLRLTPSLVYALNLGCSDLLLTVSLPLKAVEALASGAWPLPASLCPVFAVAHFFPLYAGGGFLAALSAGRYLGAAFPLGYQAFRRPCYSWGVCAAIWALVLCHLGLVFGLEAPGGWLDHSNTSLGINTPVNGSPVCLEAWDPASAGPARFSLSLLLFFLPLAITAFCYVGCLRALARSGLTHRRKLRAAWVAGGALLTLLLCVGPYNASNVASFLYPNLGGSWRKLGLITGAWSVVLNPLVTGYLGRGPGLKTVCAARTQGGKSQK

| SMILES | EC50 (GPCR GPR40 (human)) [nM] | S1P1 receptor activation, % activation (human S1P1 receptor) [%] |
| --- | --- | --- |
| CC#C[C@@H](CC(=O)O)c1ccc(NC(=O)C(=O)Nc2cc(C(F)(F)F)ccc2C(F)(F)F)cc1 [Example 1, (S)-3-{4-[(2,5-bis(trifluoromethyl)phenylaminooxalyl)amino]phenyl}hex-4-ynoic acid] | 0.4 | 0 |
| CC#C[C@@H](CC(=O)O)c1ccc(NC(=O)C(=O)Nc2cccc(C(C)(C)C)c2)cc1 [Example 2, (S)-3-{4-[(3-tert-butylphenylaminooxalyl)amino]phenyl}hex-4-ynoic acid] | 2 | 1 |
| CC#C[C@@H](CC(=O)O)c1ccc(NC(=O)C(=O)Nc2cc(C(F)(F)F)ccc2C)cc1 [Example 3, (S)-3-{4-[(2-methyl-5-trifluoromethylphenylaminooxalyl)amino]phenyl}hex-4-ynoic acid] | 4 | 1 |
| CC#C[C@@H](CC(=O)O)c1ccc(NC(=O)C(=O)Nc2cccc(C(C)C)c2)cc1 [Example 4, (S)-3-{4-[(3-isopropylphenylaminooxalyl)amino]phenyl}hex-4-ynoic acid] | 7 | 0 |
| CC#C[C@@H](CC(=O)O)c1ccc(NC(=O)C(=O)Nc2cc(C(F)(F)F)ccc2Cl)cc1 [Example 5, (S)-3-{4-[(2-chloro-5-trifluoromethylphenylaminooxalyl)amino]phenyl}hex-4-ynoic acid] | 2 | 0 |
| CC#C[C@H](CC(=O)O)c1ccc(NC(=O)C(=O)Nc2cc(C(F)(F)F)ccc2C(F)(F)F)cc1 [compound 6, (R)-3-{4-[(2,5-bis(trifluoromethyl)phenylaminooxalyl)amino]phenyl}hex-4-ynoic acid, reference compound] | 734 | – |
| CC#C[C@H](CC(=O)O)c1ccc(NC(=O)C(=O)Nc2cccc(C(C)(C)C)c2)cc1 [compound 7, (R)-3-{4-[(3-tert-butylphenylaminooxalyl)amino]phenyl}hex-4-ynoic acid, reference compound] | 1550 | – |
| CC#C[C@H](CC(=O)O)c1ccc(NC(=O)C(=O)Nc2cc(C(F)(F)F)ccc2C)cc1 [compound 8, (R)-3-{4-[(2-methyl-5-trifluoromethylphenylaminooxalyl)amino]phenyl}hex-4-ynoic acid, reference compound] | 1780 | – |
| CC#C[C@H](CC(=O)O)c1ccc(NC(=O)C(=O)Nc2cccc(C(C)C)c2)cc1 [compound 9, (R)-3-{4-[(3-isopropylphenylaminooxalyl)amino]phenyl}hex-4-ynoic acid, reference compound] | 2070 | – |
| CC#C[C@H](CC(=O)O)c1ccc(NC(=O)C(=O)Nc2cc(C(F)(F)F)ccc2Cl)cc1 [compound 10, (R)-3-{4-[(2-chloro-5-trifluoromethylphenylaminooxalyl)amino]phenyl}hex-4-ynoic acid, reference compound] | 2290 | – |
